This experiment concerns K562 nude mice transplanted tumor. Description: Inhibition of growth of K562 nude mice transplanted tumor (pre-trial, experiment 1, experiment 2). Format: in vivo, Balb/c nude mice. Particulars: cyclophosphamide 10 ml/kg intraperitoneal; for tumor sizes: n=6; for inhibition ratio: of tumor mass. The text has this: 2.4 K562 cell: primary K562 cell is derived from bone marrow of a patient having leukemia, introduced by Blood Research Institute from abroad, stored and passaged in Pathologic Cell Bank; cultured in RPMI1640 medium (comprising 10% fetal bovine serum).
2.6 experimental animal: Balb/c nude mice, 4~5 weeks old, weight: 17~20 g, gender: half male and half female. Experimental Animal Institute of the Chinese Academy of Medical Sciences, certification number of experimental animals: SCXK (JING) 2005-0013.
3.1.1 Balb/c nude mice were subjected to 3.0Gy whole-body irradiation, after subcutaneous inoculation of primary K562 cells. About 4 weeks after inoculation, tumor masses in growing were removed and transplanted into […], and this process was repeated for 2~3 passages to establish high oncogenic K562 cell line.
3.1.2 Nude mice were subjected to 3.0Gy whole-body irradiation, after subcutaneous inoculation of the K562 cells. One week after inoculation, nude mice with visible tumors were divided into the following 4 groups each consisting of 6 animals. The following dosages were administered for 3 continuous weeks, with 7 doses per week, a total of 21 doses.
Model control group: intraperitoneal injection of 20% aqueous solution of excipient at 0.2 ml/animal.
High dosage group: intraperitoneal injection of artemether at 150 ml/kg.
Middle dosage group: intraperitoneal injection of artemether at 100 ml/kg.
Low dosage group: intraperitoneal injection of artemether at 50 ml/kg.
Nude mice were subjected to a 3.0Gy whole-body irradiation, after subcutaneous inoculation of the K562 cells. One week after inoculation, nude mice with visible tumors were divided into the following 5 groups each consisting of 6 animals. The following dosages were administered for 3 continuous weeks, with 5 doses per week, a total of 15 doses.
Positive control group: intraperitoneal injection of cyclophosphamide at 10 ml/kg.
High dosage group: intraperitoneal injection of artemether at 100 ml/kg.
Middle dosage group: intraperitoneal injection of artemether at 60 ml/kg.
Low dosage group: intraperitoneal injection of artemether at 40 ml/kg.
Nude mice were subjected to a 3.0Gy whole-body irradiation, after subcutaneous inoculation of the K562 cells. One week after inoculation, nude mice with visible tumors were divided into the following 5 groups each consisting of 6 nude mice.
Model control group: intraperitoneal injection of 20% solution of excipient at 0.2ml/animal. The dosage was administered for 3 weeks, with 7 doses per week, a total of 21 doses.
Positive control group: intraperitoneal injection of cyclophosphamide at 10 ml/kg. The dosage was administered for 3 weeks, with 7 doses per week, a total of 21 doses.
High dosage group: intraperitoneal injection of artemether at 100 ml/kg. The dosage was administered for 3 weeks, with 5 doses per week, a total of 15 doses.
Middle dosage group: intraperitoneal injection of artemether at 60 ml/kg. The dosage was administered for 3 weeks, with 7 doses per week, a total of 21 doses.
Low dosage group: intraperitoneal injection of artemether at 40 ml/kg. The dosage was administered for 3 weeks, with 7 doses per week, a total of 21 doses.

Setting [1] is: experiment 1, 15 doses, 4 weeks after inoculation.
Where [2] appears, read: experiment 2, 21 doses, 4 weeks after inoculation.

SMILES strings stand for the structures.

Take `O=P1(N(CCCl)CCCl)NCCCO1` (stereo not drawn) [Cyclophosphamide, cyclophosphamide]: the tumor sizes is given as 48.1±10.9 mm3 (experiment 1, 15 doses in 3 weeks, 1 week after inoculation); 104.9±60.3 mm3 (experiment 1, 15 doses in 3 weeks, 2 weeks after inoculation); 373.7±319.9 mm3 (experiment 1, 15 doses in 3 weeks, 3 weeks after inoculation); 799.0±571.3 mm3 (experiment 1, 15 doses in 3 weeks, 4 weeks after inoculation); 30.7±10.9 mm3 (experiment 2, 21 doses in 3 weeks, 1 week after inoculation); 77.3±49.8 mm3 (experiment 2, 21 doses in 3 weeks, 2 weeks after inoculation). Moreover, the tumor sizes amounted to 203.1 ±94.7 mm3 (experiment 2, 21 doses in 3 weeks, 3 weeks after inoculation) and 327.0±206.8 mm3 (experiment 2, 21 doses in 3 weeks, 4 weeks after inoculation). Besides, the tumor mass was 651.7 ± 544.3 mg under setting [1] and 241.7 ± 176.8 mg under setting [2]. Further, the inhibition ratio reads like this: under setting [1], 39.2%; under setting [2], 83.3%.
